Test [1] concerns anti-PSMA CAR T cells co-cultured with PC3-PIP. Nature of the test: Cytokine release assay of anti-PSMA CAR T cells (IFNγ ELISA). Format: cell-based, human. Conditions: 24 h; 0 mM vs 0.6 mM Mg^2+. As for the experimental part:
FIG. 3: Magnesium regulates LFA-1 mediated T cell activation and cytotoxicity as well BiTE- and CAR T-cell functionality. (a) Glycolytic switch of murine WT and LFA-1^−/− CTLs upon injection of anti-CD3/28 Ab in medium containing 1.2 mM Mg^2+ and 0 mM Mg^2+, presented as quantification of summarized data with n=4 mice. (b) Calcium flux in WT and LFA-1^−/− Jurkat T cells stimulated with anti-CD3 Ab in 1.2 mM and 0 mM Mg^2+ medium, respectively. Cells were loaded with Fluo4, and signal intensity as recorded by plate reader, was normalized to unstimulated baseline values. […] Quantified results of n=3 mice with 3 technical replicates each. […] The effector to target cell ratio was 3:1. Results are quantified of n=3 mice with 3 technical replicates each. (e) Representative CD11a (LFA-1) surface expression on human naïve and EM CD8 T cells, PHA T cell blasts and REP T cells, assessed by flow cytometry. […] The effector to target cell ratio was 1:1. Data is presented as quantified results of n=5 healthy donors (f, g, h), n=3 healthy donors with 2 technical replicates each or n=1 healthy donor with 4 technical replicates (j). […] Data is presented as quantified results of n=1 healthy donor with 4 technical replicates. […] (p) Abundance of IFNγ in cell culture supernatants corresponding to the conditions depicted in (o) at 24 hours was determined by ELISA (n=8, 3 independent experiments). […]
(In general: ELISA stands for enzyme-linked immunosorbent assay.)

In test [2] the test system is MC38-OVA tumor cells. Nature of the test: Murine MC38-OVA tumor model, in vivo PD-1 blockade. Conditions: OVA immunized mice; 3 mM MgCl2 or NaCl i.t. every third day, 8 cycles; anti-PD-1 Ab or isotype 200 μg i.p. day 9, 12, 15. Here is the method:
FIG. 1: Intratumoral magnesium administration improves adaptive anti-tumor immunity. (a) Schematic of experimental design. B1/6 mice, either immunized with OVA or left untreated, were inoculated subcutaneously with MC38-OVA tumor cells bilaterally on the flanks. From day 7, injection of 3 mM NaCl solution was applied in left flank tumor, whereas 3 mM MgCl2 solution was injected in contralateral tumor. This regimen was repeated every third day for a total of 8 cycles. (b) Tumor growth curves in non-immunized mice (n=20) (left panel), and immunized mice (n=19) (right panel). (c) Tumor growth curves in ±CD8 depleted mice (n=6-17). Results were pooled from 2 independent experiments, with n=6-12 mice each. (d) Absolute numbers of tumor-infiltrating CD8^+ T cells. (e) Number of tumor-infiltrating CD8^+ T cells positive for Ki67 (left panel), Granzyme B (middle panel) and CD25 (right panel). (f) Cell number of tumor-infiltrating CD8^+ T cells expressing PD-1 and Tim3. (g) Schematic of experimental design. B1/6 mice, immunized with OVA, were inoculated subcutaneously with MC38-OVA tumor cells unilaterally on the flank. From day 5, intratumoral injections of either 3 mM NaCl or 3 mM MgCl2 were initiated, and repeated every third day for 8 cycles. Mice were additionally injected with 200 μg i.p. of isotype control (IgG2a) or anti-PD-1 Ab on day 9, 12, and 15. […]

On to `[Mg+2]` [Mg^2+, Magnesium], for which the IFNγ release entry in test [1] is recorded as “reduced inflammatory IFNγ release”. Besides, in test [2], the Host survival result is reported as “significantly improved animal survival” and the Tumor growth result is on record as “improving immune control significantly”.

These data come from US20240010726A1, “LFA-1 SIGNALLING MEDIATOR FOR USE IN CANCER THERAPY” (Universität Basel, priority 2020, published 2024).
